According to patent publication US10913720B2, “Benzyloxypyridylcyclopropanecarboxylic acids, pharmaceutical compositions and uses thereof” (Boehringer Ingelheim International GmbH, priority 2017, dated 2021):

Target: human GPR40 receptor (Homo sapiens, UniProt O14842)
Assay: IP1 accumulation measurements using the IPOne assay system
Type: cell-based
Details: 1321N1 cells stably expressing human GPR40; 1 h stimulation at 37° C.
Method: IP1 accumulation measurements using the IPOne assay system—1321N1 cells stably expressing human GPR40 receptor (Euroscreen, Belgium) are seeded 24 h before the assay in white 384-well plates in culture medium containing 10% FCS, 1% Na-Pyruvate and 400 μg/mL G418. IP1 is assayed according to the manufacturer's description (Cisbio Bioassays, France). In brief, the assay is started by substitution of the culture medium by stimulation buffer (Hepes 10 mM, CaCl2) 1 mM, MgCl2 0.5 mM, KCl 4.2 mM, NaCl 146 mM, glucose 5.5 mM and LiCl 50 mM, pH 7.4). Cells are stimulated for 1 h at 37° C., 5% CO2 by addition of the compounds that are diluted in stimulation buffer containing LiCl. Assays are stopped by adding HTRF-conjugates (IP1-d2 and Anti-IP1 cryptate Tb) and lysis buffer, provided by the manufacturer. After an incubation time of 1 h at room temperature plates are measured using an EnVision™, Perkin Elmer. The obtained fluorescence ratios at 665/615 […] are then used to calculate the pEC50 values using Assay Explorer 3.3 Software (Accelrys, Inc.) by interpolation using an IP1 reference curve and subsequent sigmoidal curve fitting allowing for a variable hill slope.

human GPR40 receptor, sequence (O14842 whole entry): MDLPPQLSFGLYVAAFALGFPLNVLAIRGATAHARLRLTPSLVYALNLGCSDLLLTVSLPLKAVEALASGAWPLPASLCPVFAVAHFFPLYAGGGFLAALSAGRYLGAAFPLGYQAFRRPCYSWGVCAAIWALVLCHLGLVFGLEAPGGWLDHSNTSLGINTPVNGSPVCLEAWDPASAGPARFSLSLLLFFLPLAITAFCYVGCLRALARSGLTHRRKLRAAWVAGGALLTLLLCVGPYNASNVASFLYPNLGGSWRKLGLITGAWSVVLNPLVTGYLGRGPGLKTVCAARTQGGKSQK

Question: Which EC50 does the source give for `Cc1cc(-c2nnn(CC(C)(C)O)n2)cc(C)c1-c1cccc(COc2ccc([C@H]3C[C@@H]3C(=O)O)nc2)c1` [Example 6, (1S,2S)-2-(5-{4′-[2-(2-Hydroxy-2-methyl-propyl)-2H-tetrazol-5-yl]-2′,6′-dimethyl-biphenyl-3-ylmethoxy}-pyridin-2-yl)-cyclopropanecarboxylic Acid] here?
Answer: 9 nM

Question: Which EC50 does the source give for `Cc1cc(OCC2(C)COC2)cc(C)c1-c1ccc(F)c(COc2ccc([C@H]3C[C@@H]3C(=O)O)nc2)c1` [Example 23, (1S,2S)-2-{5-[4-Fluoro-2′,6′-dimethyl-4′-(3-methyl-oxetan-3-ylmethoxy)-biphenyl-3-ylmethoxy]-pyridin-2-yl}-cyclopropanecarboxylic Acid] here?
Answer: 24 nM

Question: For `CCc1cccc(CC)c1-c1cccc(COc2ccc([C@H]3C[C@@H]3C(=O)O)nc2)c1` [Example 9, (1S,2S)-2-[5-(2′,6′-Diethyl-biphenyl-3-ylmethoxy)-pyridin-2-yl]-cyclopropane-carboxylic Acid], which EC50 is on record?
Answer: 62 nM

Question: Which EC50 does the source give for `Cc1cc(OCC2CCCO2)cc(C)c1-c1cccc(COc2ccc([C@H]3C[C@@H]3C(=O)O)nc2)c1` (stereo partly drawn) [Example 11, (1S,2S)-2-{5-[2′,6′-Dimethyl-4′-(tetrahydro-furan-2-ylmethoxy)-biphenyl-3-ylmethoxy]-pyridin-2-yl}-cyclopropanecarboxylic Acid] here?
Answer: 32 nM

Question: How did the EC50 turn out when `Cc1cnc(-c2cc(C)c(-c3ccc(F)c(COc4ccc([C@H]5C[C@@H]5C(=O)O)nc4)c3)c(C)c2)nc1` [Example 22, (1S,2S)-2-{5-[4-Fluoro-2′,6′-dimethyl-4′-(5-methyl-pyrimidin-2-yl)-biphenyl-3-ylmethoxy]-pyridin-2-yl}-cyclopropanecarboxylic Acid] was run?
Answer: 4 nM

Question: Which EC50 does the source give for `Cc1cc(-c2nnn(CC(C)(C)O)n2)cc(C)c1-c1ccc(F)c(COc2ccc([C@H]3C[C@@H]3C(=O)O)nc2)c1` [Example 18, (1S,2S)-2-(5-{4-Fluoro-4′-[2-(2-hydroxy-2-methyl-propyl)-2H-tetrazol-5-yl]-2′,6′-dimethyl-biphenyl-3-ylmethoxy}-pyridin-2-yl)-cyclopropanecarboxylic Acid] here?
Answer: 6 nM

Question: For `COc1cc(-c2cc(C)c(-c3cccc(COc4ccc([C@H]5C[C@@H]5C(=O)O)nc4)c3)c(C)c2)ccn1` [Example 8, (1S,2S)-2-{5-[4′-(2-Methoxy-pyridin-4-yl)-2′,6′-dimethyl-biphenyl-3-ylmethoxy]-pyridin-2-yl}-cyclopropanecarboxylic Acid], which EC50 is on record?
Answer: 6 nM

Question: `Cc1cc(-c2ccc(=O)n(C)c2)cc(C)c1-c1cccc(COc2ccc([C@H]3C[C@@H]3C(=O)O)nc2)c1` [Example 4, (1S,2S)-2-{5-[2′,6′-Dimethyl-4′-(1-methyl-6-oxo-1,6-dihydro-pyridin-3-yl)-biphenyl-3-ylmethoxy]-pyridin-2-yl}-cyclopropanecarboxylic Acid] was tested. Which EC50 did it give?
Answer: 15 nM

Question: How did the EC50 turn out when `Cc1cc(-c2cnccn2)cc(C)c1-c1ccc(F)c(COc2ccc([C@H]3C[C@@H]3C(=O)O)nc2)c1` [Example 19, (1S,2S)-2-[5-(4-Fluoro-2′,6′-dimethyl-4′-pyrazin-2-yl-biphenyl-3-ylmethoxy)-pyridin-2-yl]-cyclopropanecarboxylic Acid] was run?
Answer: 7 nM

Question: `COc1ccc(-c2ccc(-c3cc(COc4ccc([C@H]5C[C@@H]5C(=O)O)nc4)ccc3C(F)(F)F)cc2)nn1` [Example 29, (1S,2S)-2-{5-[4′-(6-Methoxy-pyridazin-3-yl)-6-trifluoromethyl-biphenyl-3-ylmethoxy]-pyridin-2-yl}-cyclopropanecarboxylic Acid] was tested. Which EC50 did it give?
Answer: 10 nM

Question: For `Cc1cc(OCC2CCOCC2)cc(C)c1-c1cccc(COc2ccc([C@H]3C[C@@H]3C(=O)O)nc2)c1` [Example 10, (1S,2S)-2-{5-[2′,6′-Dimethyl-4′-(tetrahydro-pyran-4-ylmethoxy)-biphenyl-3-ylmethoxy]-pyridin-2-yl}-cyclopropanecarboxylic Acid], which EC50 is on record?
Answer: 23 nM

Question: Which EC50 does the source give for `Cc1cc(-c2cnccn2)cc(C)c1-c1cccc(COc2ccc([C@H]3C[C@@H]3C(=O)O)nc2)c1` [Example 5, (1S,2S)-2-[5-(2′,6′-Dimethyl-4′-pyrazin-2-yl-biphenyl-3-ylmethoxy)-pyridin-2-yl]-cyclopropanecarboxylic Acid] here?
Answer: 11 nM

Question: With `CC(C)(O)CCOc1ccc(-c2cc(COc3ccc([C@H]4C[C@@H]4C(=O)O)nc3)ccc2C(F)(F)F)cc1` [Example 30, (1S,2S)-2-{5-[4′-(3-Hydroxy-3-methyl-butoxy)-6-trifluoromethyl-biphenyl-3-ylmethoxy]-pyridin-2-yl}-cyclopropanecarboxylic Acid] as the compound, how does the EC50 read?
Answer: 12 nM

Question: With `Cc1cc(OCCCS(C)(=O)=O)cc(C)c1-c1cccc(COc2ccc([C@H]3C[C@@H]3C(=O)O)nc2)c1` [Example 16, (1S,2S)-2-{5-[4′-(3-Methanesulfonyl-propoxy)-2′,6′-dimethyl-biphenyl-3-ylmethoxy]-pyridin-2-yl}-cyclopropanecarboxylic Acid] as the compound, how does the EC50 read?
Answer: 37 nM

Question: `Cc1cc(O[C@H]2CCOC2)cc(C)c1-c1cccc(COc2ccc([C@H]3C[C@@H]3C(=O)O)nc2)c1` [Example 12, (1S,2S)-2-(5-{2′,6′-Dimethyl-4′-[(S)-(tetrahydrofuran-3-yl)oxy]-biphenyl-3-ylmethoxy}-pyridin-2-yl)-cyclopropanecarboxylic Acid] was tested. Which EC50 did it give?
Answer: 27 nM

Question: With `O=C(O)[C@H]1C[C@@H]1c1ccc(OCc2cccc(-c3c(Cl)cccc3Cl)c2)cn1` [Example 15, (1S,2S)-2-[5-(2′,6′-Dichloro-biphenyl-3-ylmethoxy)-pyridin-2-yl]-cyclopropane-carboxylic Acid] as the compound, how does the EC50 read?
Answer: 24 nM

Question: With `Cc1cc(C(=O)O)cc(C)c1-c1ccc(F)c(COc2ccc([C@H]3C[C@@H]3C(=O)O)nc2)c1` [Example 24, (1S,2S)-3′-[6-(−2-Carboxy-cyclopropyl)-pyridin-3-yloxymethyl]-4′-fluoro-2,6-dimethyl-biphenyl-4-carboxylic Acid] as the compound, how does the EC50 read?
Answer: 2120 nM

Question: `Cc1cc(OCC(C)(C)O)cc(C)c1-c1ccc(F)c(COc2ccc([C@H]3C[C@@H]3C(=O)O)nc2)c1` [Example 25, (1S,2S)-2-{5-[4-Fluoro-4′-(2-hydroxy-2-methyl-propoxy)-2′,6′-dimethyl-biphenyl-3-ylmethoxy]-pyridin-2-yl}-cyclopropanecarboxylic Acid] was tested. Which EC50 did it give?
Answer: 36 nM

Question: Which EC50 does the source give for `COc1cnc(-c2ccc(-c3cc(COc4ccc([C@H]5C[C@@H]5C(=O)O)nc4)ccc3C(F)(F)F)cc2)nc1` [Example 28, (1S,2S)-2-{5-[4′-(5-Methoxy-pyrimidin-2-yl)-6-trifluoromethyl-biphenyl-3-ylmethoxy]-pyridin-2-yl}-cyclopropanecarboxylic Acid] here?
Answer: 4 nM

Question: `Cc1cc(-c2ccnn2C)cc(C)c1-c1cccc(COc2ccc([C@H]3C[C@@H]3C(=O)O)nc2)c1` [Example 7, (1S,2S)-2-{5-[2′,6′-Dimethyl-4′-(2-methyl-2H-pyrazol-3-yl)-biphenyl-3-ylmethoxy]-pyridin-2-yl}-cyclopropanecarboxylic Acid] was tested. Which EC50 did it give?
Answer: 11 nM

Question: For `COc1cc(-c2cc(C)c(-c3ccc(F)c(COc4ccc([C@H]5C[C@@H]5C(=O)O)nc4)c3)c(C)c2)ccn1` [Example 20, (1S,2S)-2-{5-[4-Fluoro-4′-(2-methoxy-pyridin-4-yl)-2′,6′-dimethyl-biphenyl-3-ylmethoxy]-pyridin-2-yl}-cyclopropanecarboxylic Acid], which EC50 is on record?
Answer: 5 nM

Question: How did the EC50 turn out when `COc1cc(C)c(-c2cccc(COc3ccc([C@H]4C[C@@H]4C(=O)O)nc3)c2)c(C)c1` [Example 14, (1S,2S)-2-[5-(4′-Methoxy-2′,6′-dimethyl-biphenyl-3-ylmethoxy)-pyridin-2-yl]-cyclopropanecarboxylic Acid] was run?
Answer: 27 nM

Question: For `Cc1cnc(-c2cc(C)c(-c3cccc(COc4ccc([C@H]5C[C@@H]5C(=O)O)nc4)c3)c(C)c2)nc1` [Example 2, (1S,2S)-2-{5-[2′,6′-Dimethyl-4′-(5-methyl-pyrimidin-2-yl)-biphenyl-3-ylmethoxy]-pyridin-2-yl}-cyclopropanecarboxylic Acid], which EC50 is on record?
Answer: 6 nM

Question: `Cc1cc(OC2CCOCC2)cc(C)c1-c1cccc(COc2ccc([C@H]3C[C@@H]3C(=O)O)nc2)c1` [Example 13, (1S,2S)-2-{5-[2′,6′-Dimethyl-4′-(tetrahydro-pyran-4-yloxy)-biphenyl-3-ylmethoxy]-pyridin-2-yl}-cyclopropanecarboxylic Acid] was tested. Which EC50 did it give?
Answer: 29 nM

Question: `Cc1cc(-c2ccnn2C)cc(C)c1-c1ccc(F)c(COc2ccc([C@H]3C[C@@H]3C(=O)O)nc2)c1` [Example 21, (1S,2S)-2-{5-[4-Fluoro-2′,6′-dimethyl-4′-(2-methyl-2H-pyrazol-3-yl)-biphenyl-3-ylmethoxy]-pyridin-2-yl}-cyclopropanecarboxylic Acid] was tested. Which EC50 did it give?
Answer: 6 nM

Question: Which EC50 does the source give for `Cc1cc(-c2nnn(C)n2)cc(C)c1-c1ccc(F)c(COc2ccc([C@H]3C[C@@H]3C(=O)O)nc2)c1` [Example 17, (1S,2S)-2-{5-[4-Fluoro-2′,6′-dimethyl-4′-(2-methyl-2H-tetrazol-5-yl)-biphenyl-3-ylmethoxy]-pyridin-2-yl}-cyclopropanecarboxylic Acid] here?
Answer: 3 nM

Question: For `Cc1cc(OCCC(C)(C)O)cc(C)c1-c1cc(COc2ccc([C@H]3C[C@@H]3C(=O)O)nc2)c(F)cc1F` [Example 26, (1S,2S)-2-{5-[4,6-Difluoro-4′-(3-hydroxy-3-methyl-butoxy)-2′,6′-dimethyl-biphenyl-3-ylmethoxy]-pyridin-2-yl}-cyclopropanecarboxylic Acid], which EC50 is on record?
Answer: 12 nM
